Measurements: US9867832B2, “Pharmaceutical composition for inhibiting immune response through inducing differentiation into regulator T cells and promoting proliferation of regulator T cells” (LG CHEM, LTD., priority 2013, dated 2018)

What was measured:
GVHD mouse model = assay: Allogeneic immune response (GVHD) mouse model: survival, body weight, GVHD clinical score, large intestine histology; type: in vivo
Procedure: 6-8 week-old C57BL/6 (H-2kb) mouse and BALB/c (H-2kd) mouse which have different MHC class from each other were purchased from OrientBio Co., Ltd. After passing the regulation of the management committee of the Department of Laboratory Animal, The Catholic University of Korea, the mice were used under its care. A recipient mouse BALB/c (H-2kd) was irradiated with systemic radiation at 800 cGy. Within 24 hours, bone marrow 5×10^6 cells and spleen 5×10^6 cells isolated from a donor mouse C57BL/6 […] were transplanted into the allogeneic recipient mouse intravenously to induce a graft-versus-host rejection reaction model. The bone marrow-transplanted mouse was observed and evaluation was made of the following: weight, pose, activity, hair condition and skin density with evaluation criteria on the total ten-point scale, two points per each item (Table 1).
4 μm of serial sections were obtained from the paraffin-embedded tissue, treated with xylene three times to remove paraffin, and then hydrated stepwise in 95%, 90% and 70% ethanol. After removing endogenous peroxidase in 0.5% hydrogen peroxide, the specimen was treated with normal goat serum for 30 minutes and then reacted with primary antibody which was diluted with 3% bovine serum albumin (BSA) in PBS according to the manufacturer's instruction for 1 hour. After primary antibody reaction to the expressed proteins directed to genes showing the difference of expression in the above study, the specimen was washed with Tris-buffered saline (TBS) three times, reacted with 5 μg/ml biotinylated anti-mouse/anti-rabbit IgG diluted in 3% BSA for 30 minutes and washed with TBS three times. The specimen was kept in 3 μg/ml horseradish peroxidase streptoavidin for 30 minutes, color development was carried out by the use of DAB and hydrogen peroxide, and counter staining was carried out with Meyer's hematoxylin or 1% methyl green. […]

[1] = test system: reactive oxygen species (ROS); assay: Measurement of reactive oxygen species (ROS) in spleen cells of GVHD mice; type: in vivo; conditions: GVHD mouse spleen cells; 7th and 14th day; dose- and time-dependent; vs control group
Procedure: Animals of each group were sacrificed, and their spleens were isolated. After single-cell isolation, the obtained cells were washed with phosphate-buffered saline (PBS) twice. The reaction with 3 μM carboxy-H2DCFDA reagent was carried out at 37° C. for 10 minutes. After washing with PBS, the analysis was carried out with a flow cytometer at 540 nm.
Accordingly, the present inventors observed immune response by oxidative stress via GVHD mouse model.

HMGB1 = assay: Real-time PCR of HMGB1 expression in spleen cells of GVHD mice; type: in vivo; conditions: GVHD mouse spleen cells, 7th and 14th day, time-dependent, vs control group
Procedure: Total RNA was extracted from the cells by the use of TRIzol reagent. 1 μg of RNA was reacted with AMV reverse transcriptase and random hexamer at 45° C. for 1 hour to synthesize cDNA. Real-time PCR was carried out by the use of a mixture in which 1 μg of cDNA as a template, primer S, primer AS and distilled water were mixed, and SYBR Green. The PCR was carried out by the use of I-IMGB 1 (5′-GATGGGCAAAGGAGATCCTAAG-3′ and 5′-TCACTTTTTTGTCTCCCCTTTGGG-3′) with the condition of 35 cycles of at 95° C. for 15 seconds, at 60° C. for 10 seconds and at 72° C. for 30 seconds. Fluorescent data were measured by the use of Rad CFX96 Real-Time System (Bio-Rad Laboratories).
It has been well known that the release of HMGB1 has a possibility of the function for regulating inflammation and immunity. Therefore, in this study the animals of the test group in which GVHD mouse model was treated with the compound of the present invention and the control model was sacrificed, RNA was extracted from spleen cells, and then cDNA was synthesized and a comparative study on the expression of HMGB1 was carried out by real-time PCR.

[2] = test system: CD4+CD25+Foxp3+ regulatory T cells; assay: Flow cytometry of spleen cells of GVHD mice (regulatory T cells, CD4+IL-4, CD4+IFN-γ); type: in vivo; conditions: GVHD mouse spleen
Procedure: Mice were divided into a GVHD group in which (tetrahydropyran-4-yl)-[2-phenyl-5-(1,1-dioxo-thiomorpholin-4-yl)methyl-1H-indol-7-yl]amine (LG Life Sciences Ltd., Daejeon, Korea, hereinafter referred to as “Compound A”) was treated as a test group and a GVHD group in which Compound A was not treated as a control group. The spleens of each group were isolated and single-cell isolation was then carried out. The expression of CD4+CD25+Foxp3+, which is the phenotype of regulatory T cell, and CD4+IFN-γ cells and CD4+IL-4 cells were analyzed by the use of fluorescent monoclonal antibodies and a flow cytometer.
The present inventors found out that in GVHD mouse model, immune transplant rejection was decreased, the production of ROS and HMGB1, and cellular necrosis in tissues were suppressed by the compound of the present invention, so that they intended to observe the possibility of regulating immune response in immune disease animal model. Accordingly, mice of the test group in which the compound of the present invention was treated and the control group were sacrificed, their spleens were isolated, single-cell isolation was carried out, and the function of immune regulation was searched via flow cytometry. As a result, in the group in which the compound of the present invention was treated CD4+CD25+Foxp3+ immune regulatory cells (regulatory T cells) were increased 6 times or more, as compared with the control group. […] In GVHD model, after irradiation of high-dose radiation the transplanted T cells of the donor are activated and proliferated by antigen-presenting cells of the host to secrete IFN-γ which is known as a representative GVHD causing cytokine. […] Therefore, it can be known that the compound of the present invention can suppress immune response by suppressing the activation of the transplanted T cells.

[3] = test system: CD4+ T cells isolated from mouse spleen cells; assay: In vitro differentiation of CD4+ T cells into regulatory T cells (aCD3, aCD28, TGF-beta); type: cell-based
Procedure: Experimentation for investigating the effect of the compound of the present invention on the differentiation of lymphocyte Th cells was carried out. 5×10^5 CD4+ T cells isolated from mouse spleen cells were dispensed into a 24-well plate coated with 1 μg/ml of anti-CD3 (aCD3), and then treated with 1 μg/ml of […] (aCD28) and 5 ng/ml of TGF-beta to induce the differentiation into regulatory T cells for 3 days. Before the differentiation into regulatory T cells, the compound (tetrahydropyran-4-yl)-[2-phenyl-5-(1,1-dioxo-thiomorpholin-4-yl)methyl-1H-indol-7-yl]amine (hereinafter referred to as “Compound A”) (LG Life Sciences Ltd., Daejeon, Korea) of the present invention was treated with the concentration of 40 μM and 80 μM. For flow cytometry, anti-mouse CD4 PerCP, CD25 APC and FoxP3 PE fluorescence-labeled antibodies were added thereto and reacted at 4° C. for 30 minutes. After washing with PBS, the measurement was carried out with a flow cytometer (FACSCalibur™)
In the course that 5×10^5 CD4^+ T cells isolated from mouse spleen cells were dispensed into a 24-well plate coated with 1 μg/ml of anti-CD3 (aCD3), and then treated with 1 μg/ml of […] (aCD28) and 5 ng/ml of TGF-beta to induce the differentiation into regulatory T cells for 3 days, the groups were divided into (1) 40 μM or 80 μM of Compound A single-treated group, (2) 0.1 μM of retinoic acid (RA) single-treated group, (3) 1 μM of retinal treated group, (4) 0.1 μM of RA and 40 μM or 80 μM of Compound A treated group, and (5) 1 μM of retinal and 40 μM or 80 μM of Compound A treated group, and the effect on the differentiation into regulatory T cells of each group was then compared.

[4] = test system: CD4+ T cells isolated from the spleen cells of C57BL/6; assay: Differentiation into regulatory T cells in allogeneic immune cells in vitro; type: cell-based, mouse; conditions: C57BL/6 CD4+ T cells with irradiated BALBc APCs; 5 days; various concentrations
Procedure: 1×10^6 CD4^+ T cells isolated from the spleen cells of C57BL/6 and BALBc antigen-presenting cells (APCs) irradiated at 20 Gy were added to a 48-well plate and incubated at 37° C. for 5 days. The incubation was carried out under the condition that allogeneic immune response by antigen-presenting cells is induced to the spleen cells, and the treatment with Compound A at various concentrations before incubation was carried out for comparative analysis. The cells were harvested after 5-day incubation, and for flow cytometry anti-mouse CD4 PerCP, CD25 APC and FoxP3 PE fluorescence-labeled antibodies were added thereto and reacted at 4° C. for 30 minutes. After washing with PBS, the measurement was carried out with a flow cytometer (FACSCalibur™).

[5] = test system: CD4+CD25+Foxp3+ regulatory T cells; assay: Increase of regulatory T cells in in vivo GVHD mouse model (Example 10); conditions: intravenous, four times a week for two weeks, spleen flow cytometry
Procedure: 6-8 week-old C57BL/6 (H-2kb) mouse and BALB/c (H-2kd) mouse which have different MHC class from each other were used. A recipient mouse BALB/c (H-2kd) was irradiated with systemic radiation at 8 Gy. Within 24 hours, bone marrow 5×10^6 cells and spleen 5×10^6 cells isolated from a donor mouse C57BL/6 […] were transplanted into the recipient mouse intravenously to induce graft-versus-host rejection reaction model (GVHD model). Compound A was intravenously injected into the GVHD model four times a week for two weeks. Mice were sacrificed, single-cell isolation was carried out, and the function of immune regulation in the spleen was investigated via flow cytometry. As a result, it was confirmed that in the group in which Compound A was administered CD4^+CD25^+Foxp3^+ regulatory T cells were increased.

SMILES: O=S1(=O)CCN(Cc2cc(NC3CCOCC3)c3[nH]c(-c4ccccc4)cc3c2)CC1 [Compound A, (tetrahydropyran-4-yl)-[2-phenyl-5-(1,1-dioxo-thiomorpholin-4-yl)methyl-1H-indol-7-yl]amine]
- survival rate (GVHD mouse model; 0.3 or 1 mg/kg (FIG. 2), compared with non-treated group): considerably increased
- body weight (GVHD mouse model; FIGS. 1 and 2): significant results
- graft-versus-host reaction (GVHD clinical score) (GVHD mouse model; FIGS. 1 and 2): significant results
- generation ratio of reactive oxygen species in cells [1]: significantly suppressed
- release (expression) of HMGB1 (HMGB1): significantly suppressed
- increase of CD4+CD25+Foxp3+ immune regulatory cells (regulatory T cells) ([2]; compared with control group): ≥ 6 times
- CD4+IFN-γ ([2]; vs control group): decreased by more than half
- CD4+IL-4 cells ([2]; vs control group): increased
- differentiation into regulatory T cells ([3]; CD4+ T cells with aCD3, aCD28, TGF-beta, 40 μM and 80 μM): increased in a Compound A concentration-dependent manner
- expression of Foxp3+ ([3]; CD4+ T cells with aCD3, aCD28, TGF-beta, 40 μM and 80 μM, 3 days, vs control without Compound A): nearly doubled
- expression of Foxp3+ (alone or in combination) ([3]; aCD3, aCD28, TGF-beta, Compound A 40 or 80 μM, RA 0.1 μM, retinal 1 μM): increased to a similar extent to the case of treating retinal or RA
- regulatory T cells [4]: increased according to the concentration of Compound A
- CD4+CD25+Foxp3+ regulatory T cells [5]: increased
